In patent US7262183B2, “Substituted 5-membered n-heterocyclic compounds and their uses for treating or preventing neurodegenerative diseases” (Instititute of Pharmacology and Toxicology, priority 2001, dated 2007):

What was measured:
[1] = test system: chick embryos dorsal root ganglia; experiment: chick embryos dorsal root ganglion cultures free of serum, neurite process growth; type: cell-based; conditions: for Average scoring: 48 h, neurite score 0-3, average of 10 ganglia, control (NGF only) 0.33
Procedure: The neurotrophic activity of compounds of the present invention can be determined through several biological models in vitro, e.g. the model of chick embryos dorsal root ganglion cultures free of serum in vitro.
In a sterile environment, dorsal root ganglia were dissected from chick embryos of 8 days gestation and inoculated in rat rail collagen coated culture bottles (5 to 6 dorsal root ganglia per bottle, and two bottles per dosage). After 1 hour of attachment in a 37° C., 5% CO2 incubator, NGF (0.15 ng/ml) containing culture medium free of serum (DMEM) and the compound of the present invention were added. The control groups were treated only with the same amount of NGF and culture medium. […] Five to six DRGs were cultured per bottle, and each treatment was performed in duplicate. The results of illustrative compound of example 15 promoting the growth of chick embryos dorsal root ganglia processes were outlined in table 1, wherein the scoring is the average scoring of 10 ganglia.
FIG. 1 indicates the growth of neurites of chick dorsal root ganglia under various dosages of the compound of example 15. A represents that chick embryos dorsal root ganglia with rare processes is caused by the treatment of sole NGF (0.15 ng/mL).

[2] = test system: adult mice sympathetic nerve endings damaged by 6-hydroxy-dopamine (6-OHDA); experiment: adult mice sympathetic nerve endings damaged by 6-OHDA, residual noradrenaline in submaxillary glands; type: in vivo; conditions: 10 mg/kg subcutaneous injection; 6-OHDA 8 mg/kg intraperitoneal; measured two weeks after last administration, HPLC-electrochemical detector
Procedure: The neurotrophic activity of the compounds of the present invention can also be determined in several animal pharmacological models in vivo, such as the model of adult mice sympathetic nerve endings damaged by 6-hydroxy-dopamine (6-OHDA).
Kunming species female mice (□) having a body weight of 18-22 g are randomly divided into the following groups: normal control group, model control group, FK506 (2 mg/kg) group, and the group of compound of the present invention (10 mg/kg) (10 mice per group). The mice are administrated with 6-OHDA (8 mg/kg) by intraperitoneal injection before 4 hours and after 4 continuous days of subcutaneous injection of the compound, while the control groups are administrated with the equivalent quantity of carrier by subcutaneous injection. After two weeks of the last administration, the mice are killed by luxation, and the two submaxillary glands of each of the mice are rapidly excised and weighed, placed in a glass grinder, then is homogenated with a homogenating liquid containing internal-standard, and centrifuged at 2000 g for 30 minutes. 20 μL of the obtained supernatant is directly injected in an HPLC-electrochemical detector to measure the content of noradrenaline (NE) in the submaxillary glands of the mice. […]

| Compound | Average scoring ([1]; 1 pM compound + NGF (0.15 ng/mL) in DMEM) | growth of neurites of chick dorsal root ganglia (FIG. 1) ([1]; 1 pM compound + NGF (0.15 ng/mL), FIG. 1 B) | Average scoring ([1]; 10 pM compound + NGF (0.15 ng/mL) in DMEM) | growth of neurites of chick dorsal root ganglia (FIG. 1) ([1]; 10 pM compound + NGF (0.15 ng/mL), FIG. 1 C, compared with 1 pM) | Average scoring ([1]; 100 pM compound + NGF (0.15 ng/mL) in DMEM) | growth of neurites of chick dorsal root ganglia (FIG. 1) ([1]; 100 pM compound + NGF (0.15 ng/mL), FIG. 1 D, compared with A, B and C) | level of residual NE in the submaxillary glands of the mice (FIG. 2) [2] |
| --- | --- | --- | --- | --- | --- | --- | --- |
| CC(C)(C)C(=O)C(=O)N1CSC(C)(C)[C@@H]1C(=O)OCCCc1cccnc1 [Example 15, 3-(3-pyridyl)-1-propyl (2S)-5,5-dimethyl-1-(3,3-dimethyl-1,2-dioxobutyl)-2-(4-thiazolidine)carboxylate] | 1.00 | enhances the improving effect of sole NGF (0.15 ng/mL) on the growth of neurites | 1.31 | stronger effect on the growth of neurites | 1.57 | strongest effect | raise the residual NE level |
| CC(C)(C)C(=O)C(=O)N1CSC(C)(C)[C@@H]1C(=O)OCCCc1ccccc1 [Example 17, 3-phenyl-1-propyl (2S)-5,5-dimethyl-1-(3,3-dimethyl-1,2-dioxobutyl)-2-(4-thiazolidine)carboxylate] | – | – | – | – | – | – | raise the residual NE level |
